Measured values published in PubChem BioAssay (NCI).
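GI50: concentration for 50% inhibition of growth. TGI is the concentration that stops growth completely.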

Columns and labels:
Experiment in all cases: inhibition of tumour cell growth, NCI panel, 384-well format
786-0 renal = tested on: 786-0 renal
A498 renal = tested on: A498 renal
A549 NSCLC = tested on: A549 NSCLC
ACHN renal = tested on: ACHN renal
BT-549 breast = tested on: BT-549 breast
CAKI-1 renal = tested on: CAKI-1 renal
CCRF-CEM leukemia = tested on: CCRF-CEM leukemia
COLO 205 colon = tested on: COLO 205 colon
DU-145 prostate = tested on: DU-145 prostate
EKVX NSCLC = tested on: EKVX NSCLC
HCC-2998 colon = tested on: HCC-2998 colon
HCT-116 colon = tested on: HCT-116 colon
HCT-15 colon = tested on: HCT-15 colon
HL-60(TB) leukemia = tested on: HL-60(TB) leukemia
HOP-62 NSCLC = tested on: HOP-62 NSCLC
HOP-92 NSCLC = tested on: HOP-92 NSCLC
HS 578T breast = tested on: HS 578T breast
HT29 colon = tested on: HT29 colon
IGROV1 ovarian = tested on: IGROV1 ovarian
K-562 leukemia = tested on: K-562 leukemia
KM12 colon = tested on: KM12 colon
LOX IMVI melanoma = tested on: LOX IMVI melanoma
M14 melanoma = tested on: M14 melanoma
MALME-3M melanoma = tested on: MALME-3M melanoma
MCF7 breast = tested on: MCF7 breast
MDA-MB-231 breast = tested on: MDA-MB-231 breast
MDA-MB-435 melanoma = tested on: MDA-MB-435 melanoma
MDA-MB-468 breast = tested on: MDA-MB-468 breast
MOLT-4 leukemia = tested on: MOLT-4 leukemia
NCI-H226 lung = tested on: NCI-H226 lung
NCI-H23 lung = tested on: NCI-H23 lung
NCI-H322M lung = tested on: NCI-H322M lung
NCI-H460 NSCLC = tested on: NCI-H460 NSCLC
NCI-H522 lung = tested on: NCI-H522 lung
NCI/ADR-RES ovarian = tested on: NCI/ADR-RES ovarian
OVCAR-3 ovarian = tested on: OVCAR-3 ovarian
OVCAR-4 ovarian = tested on: OVCAR-4 ovarian
OVCAR-5 ovarian = tested on: OVCAR-5 ovarian
OVCAR-8 ovarian = tested on: OVCAR-8 ovarian
PC-3 prostate = tested on: PC-3 prostate
RPMI-8226 leukemia = tested on: RPMI-8226 leukemia
RXF 393 renal = tested on: RXF 393 renal
SF-268 CNS = tested on: SF-268 CNS
SF-295 CNS = tested on: SF-295 CNS
SF-539 CNS = tested on: SF-539 CNS
SK-MEL-2 melanoma = tested on: SK-MEL-2 melanoma
SK-MEL-28 melanoma = tested on: SK-MEL-28 melanoma
SK-MEL-5 melanoma = tested on: SK-MEL-5 melanoma
SK-OV-3 ovarian = tested on: SK-OV-3 ovarian
SN12C renal = tested on: SN12C renal
SNB-19 CNS = tested on: SNB-19 CNS
SNB-75 CNS = tested on: SNB-75 CNS
SR leukemia = tested on: SR leukemia
SW-620 colon = tested on: SW-620 colon
T-47D breast = tested on: T-47D breast
TK-10 renal = tested on: TK-10 renal
U251 glioblastoma = tested on: U251 glioblastoma
UACC-257 melanoma = tested on: UACC-257 melanoma
UACC-62 melanoma = tested on: UACC-62 melanoma

## C[C@@H]1COCCN1c1cc(C2(S(C)(=N)=O)CC2)nc(-c2ccnc3[nH]ccc23)n1 (stereo partly drawn)
786-0 renal
  GI50: 1.82 µM
  TGI: 5.72 µM
A498 renal
  GI50: 0.637 µM
  TGI: 2.25 µM
A549 NSCLC
  GI50: 3.54 µM
  TGI: > 44.4 µM
ACHN renal
  GI50: 0.71 µM
  TGI: 3.6 µM
BT-549 breast
  GI50: 1.93 µM
  TGI: 9.01 µM
CAKI-1 renal
  GI50: 2.84 µM
  TGI: > 40 µM
CCRF-CEM leukemia
  GI50: 0.638 µM
  TGI: 1.9 µM
COLO 205 colon
  GI50: 9.75 µM
  TGI: 31.1 µM
DU-145 prostate
  GI50: 3.17 µM
  TGI: 14 µM
EKVX NSCLC
  GI50: 4.78 µM
  TGI: 19.9 µM
HCC-2998 colon
  GI50: 0.967 µM
  TGI: 3.58 µM
HCT-116 colon
  GI50: 2.54 µM
  TGI: > 100 µM
HCT-15 colon
  GI50: 2.21 µM
  TGI: 13.7 µM
HL-60(TB) leukemia
  GI50: 1 µM
  TGI: 2.53 µM
HOP-62 NSCLC
  GI50: 1.34 µM
  TGI: 3.58 µM
HOP-92 NSCLC
  GI50: 2.04 µM
  TGI: > 28.4 µM
HS 578T breast
  GI50: 2.45 µM
  TGI: 12 µM
HT29 colon
  GI50: 3.55 µM
  TGI: 15.8 µM
IGROV1 ovarian
  GI50: 2.67 µM
  TGI: 23 µM
K-562 leukemia
  GI50: 2.35 µM
  TGI: 6.73 µM
KM12 colon
  GI50: 1.63 µM
  TGI: 22.3 µM
LOX IMVI melanoma
  GI50: 1.29 µM
  TGI: 8.31 µM
M14 melanoma
  GI50: 1.64 µM
  TGI: 4.36 µM
MALME-3M melanoma
  GI50: 5.67 µM
  TGI: 16.8 µM
MCF7 breast
  GI50: 0.615 µM
  TGI: > 39.4 µM
MDA-MB-231 breast
  GI50: 5.68 µM
  TGI: > 44.6 µM
MDA-MB-435 melanoma
  GI50: 3.71 µM
  TGI: 11.3 µM
MDA-MB-468 breast
  GI50: 4.8 µM
  TGI: 18.6 µM
MOLT-4 leukemia
  GI50: 1.02 µM
  TGI: 2.26 µM
NCI-H226 lung
  GI50: 8.14 µM
  TGI: 46.2 µM
NCI-H23 lung
  GI50: 1.24 µM
  TGI: 3.26 µM
NCI-H322M lung
  GI50: 1.11 µM
  TGI: 5.59 µM
NCI-H460 NSCLC
  GI50: 0.541 µM
  TGI: 4.87 µM
NCI-H522 lung
  GI50: 9.39 µM
  TGI: 25 µM
NCI/ADR-RES ovarian
  GI50: 17 µM
  TGI: 53.1 µM
OVCAR-3 ovarian
  GI50: 3.03 µM
  TGI: 18.1 µM
OVCAR-4 ovarian
  GI50: 2 µM
  TGI: 9.93 µM
OVCAR-5 ovarian
  GI50: 3.98 µM
  TGI: 22.4 µM
OVCAR-8 ovarian
  GI50: 5.49 µM
  TGI: 18 µM
PC-3 prostate
  GI50: 5.4 µM
  TGI: 31.3 µM
RPMI-8226 leukemia
  GI50: 1.4 µM
  TGI: 3.2 µM
RXF 393 renal
  GI50: 2.67 µM
  TGI: 9.58 µM
SF-268 CNS
  GI50: 6.17 µM
  TGI: 24 µM
SF-295 CNS
  GI50: 2.47 µM
  TGI: 9.13 µM
SF-539 CNS
  GI50: 1.29 µM
  TGI: 5.89 µM
SK-MEL-2 melanoma
  GI50: 0.685 µM
  TGI: 2.46 µM
SK-MEL-28 melanoma
  GI50: 11.6 µM
  TGI: 24.8 µM
SK-MEL-5 melanoma
  GI50: 3.62 µM
  TGI: 12.8 µM
SK-OV-3 ovarian
  GI50: 1.78 µM
  TGI: 18.9 µM
SN12C renal
  GI50: 2.96 µM
  TGI: 17.1 µM
SNB-19 CNS
  GI50: 6.13 µM
  TGI: 57.3 µM
SNB-75 CNS
  GI50: 4.52 µM
  TGI: 14.3 µM
SR leukemia
  GI50: 0.153 µM
  TGI: 0.45 µM
SW-620 colon
  GI50: 2.77 µM
  TGI: 50.4 µM
T-47D breast
  GI50: 8.7 µM
  TGI: > 43.1 µM
TK-10 renal
  GI50: 0.756 µM
  TGI: 3.58 µM
U251 glioblastoma
  GI50: 4.85 µM
  TGI: 29 µM
UACC-257 melanoma
  GI50: 13 µM
  TGI: 27.5 µM
UACC-62 melanoma
  GI50: 3.01 µM
  TGI: 14.4 µM
